≈ marks a conversion by molar mass, not a printed value. Entries after “also recorded” stand apart in the source; their conditions may differ.
Assays:
[1] = Physical appearance of SDC-TRAP-0063 formulations and infusion solutions with different diluents and carbonate buffers; assay type: physicochemical
Protocol: First, a stock solution of SDC-TRAP-0063 was prepared in DMSO at 22 mg/mL, then the required amount of tween 80 was added and mixed well.
The above formulation containing SDC-TRAP-0063 was diluted using either D5W, D5W (pH 10.5, adjusted with 4.55 mM NaOH) or carbonate buffer, pH 10) (final drug concentration.: 1 mg/mL SDC-TRAP-0063, 1.8% v/v Tween 80, 5% v/v DMSO). The physical observations on these solutions were noted before and filtration through 0.22μ PES filter and were further observed for 3 hr. Refer to the table below for summary of observations. Note: Carbonate buffer, pH 10 was prepared by mixing 0.1M sodium carbonate (27.5 mL) and 0.1M sodium bicarbonate (22.5 mL) and qs 200 mL with DIW. The total Na content of carbonate buffer was 39 mM.
A stock solution of SDC-TRAP-0063 was prepared in either DMSO or PEG-300. To prepare formulations containing DMSO and tween 80, required amount of tween 80 added to the stock of DMSO (containing SDC-TRAP-0063). The formulations were then was diluted with carbonate buffer, pH 10 (composition: add and mix 0.1M sodium carbonate (27.5 mL) and 0.1M sodium bicarbonate (22.5 mL) and qs 200 mL with DIW). The samples (prepared in glass vial) were mixed well and observed for physical appearance while stirring on a magnetic stirring plate at ambient. (Note-appropriate amounts of SDC-TRAP-0063, tween 80, DMSO and PEG-300, as applicable were used to prepare the solutions at the desired concentrations and drug concentrations at 1 mg/mL through 5 mg/mL as shown).
Carbonate buffers of different pH (pH 9-10) and ionic strengths (with higher (>2) Na contents that SDC-TRAP-0063 on molar basis) were prepared and used for diluting the DMSO/tween 80 formulation loaded with SDC-TRAP-0063 (as described in earlier section 3). The final concentrations of DMSO and tween 80 in the diluted carbonate buffer were 5% v/v and 1.8% v/v respectively. The drug concentration was kept constant (5 mg/mL) for all diluted samples.

[2] = tested on: SK-OV-3 xenografts; test: Antitumor activity in SK-OV-3 ovarian cancer xenografts; assay type: in vivo, female Balb/c nude mice; details: SDC-TRAP-0063 200 mg/kg group; irinotecan alone and with ganetespib; 200 mg/kg
Protocol: This model is sensitive to HSP90 inhibition.
However, once the dosing is discontinued all but 200 mg/kg of SDC-TRAP-0063 dose group maintained tumor growth inhibition for a prolonged period of time.

[3] = Solubility of SDC-TRAP-0063 (ganetespib placebo formulation, PEG-300); assay type: physicochemical; details: PEG-300, organic solvent or mixture, thermodynamic from solid; Lot 8; estimated; read-out: equilibrium solubility in PEG-300

Compound: CCc1c2c(nc3ccc(OC(=O)N4CCC(CCn5ccc6cc(-n7c(O)nnc7-c7cc(C(C)C)c(O)cc7O)ccc65)CC4)cc13)-c1cc3c(c(=O)n1C2)COC(=O)[C@]3(O)CC [SDC-TRAP-0063, 4,11-diethyl-4-hydroxy-3,14-dioxo-3,4,12,14-tetrahydro-1H-pyrano[3′,4′:6,7]indolizino[1,2-b]quinolin-9-yl 4-(2-(5-(3-(2,4-dihydroxy-5-isopropylphenyl)-5-hydroxy-4H-1,2,4-triazol-4-yl)-1H-indol-1-yl)ethyl)piperidine-1-carboxylate]
- Observations (physical appearance) ([1]; 5% v/v DMSO, carbonate buffer pH 10 (39 mM Na), 1 mg/mL, 6 h): Cloudy
- Observations (physical appearance) ([1]; 5% v/v DMSO, carbonate buffer pH 10 (39 mM Na), 1 mg/mL, Initial): Cloudy
- Observations (physical appearance) ([1]; 5% v/v DMSO, carbonate buffer pH 10 (39 mM Na), 1 mg/mL, Overnight): Clear yellow solution
- Observations (physical appearance) ([1]; 5% v/v DMSO, carbonate buffer pH 10 (39 mM Na), 2 mg/mL, 30 min): Cloudy
- Observations (physical appearance) ([1]; 5% v/v DMSO, carbonate buffer pH 10 (39 mM Na), 2 mg/mL, 1 h): Cloudy
- Observations (physical appearance) ([1]; 5% v/v DMSO, carbonate buffer pH 10 (39 mM Na), 2 mg/mL, 6 h): Cloudy
- Observations (physical appearance) ([1]; 5% v/v DMSO, carbonate buffer pH 10 (39 mM Na), 2 mg/mL, Initial): Cloudy
- Observations (physical appearance) ([1]; 5% v/v DMSO, carbonate buffer pH 10 (39 mM Na), 2 mg/mL, Overnight): Opaque (less cloudy than at 6 h)
- Observations (physical appearance) ([1]; 5% v/v DMSO, carbonate buffer pH 10 (39 mM Na), 3 mg/mL, 30 min): Cloudy
- Observations (physical appearance) ([1]; 5% v/v DMSO, carbonate buffer pH 10 (39 mM Na), 3 mg/mL, 1 h): Cloudy
- Observations (physical appearance) ([1]; 5% v/v DMSO, carbonate buffer pH 10 (39 mM Na), 3 mg/mL, 6 h): Cloudy
- Observations (physical appearance) ([1]; 5% v/v DMSO, carbonate buffer pH 10 (39 mM Na), 3 mg/mL, Initial): Cloudy
- Observations (physical appearance) ([1]; 5% v/v DMSO, carbonate buffer pH 10 (39 mM Na), 3 mg/mL, Overnight): Cloudy
- Observations (physical appearance) ([1]; 5% v/v DMSO, carbonate buffer pH 10 (39 mM Na), 4 mg/mL, 30 min): Cloudy
- Observations (physical appearance) ([1]; 5% v/v DMSO, carbonate buffer pH 10 (39 mM Na), 4 mg/mL, 1 h): Cloudy
- Observations (physical appearance) ([1]; 5% v/v DMSO, carbonate buffer pH 10 (39 mM Na), 4 mg/mL, 6 h): Cloudy
- Observations (physical appearance) ([1]; 5% v/v DMSO, carbonate buffer pH 10 (39 mM Na), 4 mg/mL, Initial): Cloudy
- Observations (physical appearance) ([1]; 5% v/v DMSO, carbonate buffer pH 10 (39 mM Na), 4 mg/mL, Overnight): Cloudy
- Observations (physical appearance) ([1]; 5% v/v DMSO, carbonate buffer pH 10 (39 mM Na), 5 mg/mL, 30 min): Cloudy
- Observations (physical appearance) ([1]; 5% v/v DMSO, carbonate buffer pH 10 (39 mM Na), 5 mg/mL, 1 h): Cloudy
- Observations (physical appearance) ([1]; 5% v/v DMSO, carbonate buffer pH 10 (39 mM Na), 5 mg/mL, 6 h): Cloudy
- Observations (physical appearance) ([1]; 5% v/v DMSO, carbonate buffer pH 10 (39 mM Na), 5 mg/mL, Initial): Cloudy
- Observations (physical appearance) ([1]; 5% v/v DMSO, carbonate buffer pH 10 (39 mM Na), 5 mg/mL, Overnight): Cloudy
- physical appearance after dilution with carbonate buffer, pH 10 ([1]; DMSO alone 5% v/v, 2 mg/mL through 5 mg/mL): stayed cloudy for more than 24 h
- physical appearance after dilution with carbonate buffer, pH 10 ([1]; PEG-300 formulations, 1 mg/mL and 2 mg/mL): appeared clear at 30 mm and 1 hr of stirring respectively
- physical appearance after dilution with carbonate buffer, pH 10 ([1]; PEG-300 formulations, 3 mg/mL, 4 mg/mL and 5 mg/mL): took longer and were clear next day
- Observations (physical appearance) ([1]; […] v/v PEG-300, carbonate buffer pH 10 (39 mM Na), 1 mg/mL, 30 min): clear,
- Observations (physical appearance) ([1]; […] v/v PEG-300, carbonate buffer pH 10 (39 mM Na), 1 mg/mL, 1 h): clear, yellow
- Observations (physical appearance) ([1]; […] v/v PEG-300, carbonate buffer pH 10 (39 mM Na), 1 mg/mL, 2 h): clear, yellow
- Observations (physical appearance) ([1]; […] v/v PEG-300, carbonate buffer pH 10 (39 mM Na), 1 mg/mL, Initial): slightly
- Observations (physical appearance) ([1]; […] v/v PEG-300, carbonate buffer pH 10 (39 mM Na), 1 mg/mL, Overnight): clear, yellow
- Observations (physical appearance) ([1]; […] v/v PEG-300, carbonate buffer pH 10 (39 mM Na), 2 mg/mL, 30 min): Translucent
- Observations (physical appearance) ([1]; […] v/v PEG-300, carbonate buffer pH 10 (39 mM Na), 2 mg/mL, 1 h): clear, yellow
- Observations (physical appearance) ([1]; […] v/v PEG-300, carbonate buffer pH 10 (39 mM Na), 2 mg/mL, 2 h): clear, yellow
- Observations (physical appearance) ([1]; […] v/v PEG-300, carbonate buffer pH 10 (39 mM Na), 2 mg/mL, Initial): cloudy
- Observations (physical appearance) ([1]; […] v/v PEG-300, carbonate buffer pH 10 (39 mM Na), 2 mg/mL, Overnight): clear, yellow
- Observations (physical appearance) ([1]; […] v/v PEG-300, carbonate buffer pH 10 (39 mM Na), 3 mg/mL, 30 min): cloudy
- Observations (physical appearance) ([1]; […] v/v PEG-300, carbonate buffer pH 10 (39 mM Na), 3 mg/mL, 1 h): cloudy
- Observations (physical appearance) ([1]; […] v/v PEG-300, carbonate buffer pH 10 (39 mM Na), 3 mg/mL, 2 h): cloudy
- Observations (physical appearance) ([1]; […] v/v PEG-300, carbonate buffer pH 10 (39 mM Na), 3 mg/mL, Initial): cloudy
- Observations (physical appearance) ([1]; […] v/v PEG-300, carbonate buffer pH 10 (39 mM Na), 3 mg/mL, Overnight): clear, yellow
- Observations (physical appearance) ([1]; […] v/v PEG-300, carbonate buffer pH 10 (39 mM Na), 4 mg/mL, 30 min): cloudy
- Observations (physical appearance) ([1]; […] v/v PEG-300, carbonate buffer pH 10 (39 mM Na), 4 mg/mL, 1 h): cloudy
- Observations (physical appearance) ([1]; […] v/v PEG-300, carbonate buffer pH 10 (39 mM Na), 4 mg/mL, 2 h): cloudy
- Observations (physical appearance) ([1]; […] v/v PEG-300, carbonate buffer pH 10 (39 mM Na), 4 mg/mL, Initial): cloudy
- Observations (physical appearance) ([1]; […] v/v PEG-300, carbonate buffer pH 10 (39 mM Na), 4 mg/mL, Overnight): clear, yellow
- Observations (physical appearance) ([1]; […] v/v PEG-300, carbonate buffer pH 10 (39 mM Na), 5 mg/mL, 30 min): cloudy
- Observations (physical appearance) ([1]; […] v/v PEG-300, carbonate buffer pH 10 (39 mM Na), 5 mg/mL, 1 h): cloudy
- Observations (physical appearance) ([1]; […] v/v PEG-300, carbonate buffer pH 10 (39 mM Na), 5 mg/mL, 2 h): cloudy
- Observations (physical appearance) ([1]; […] v/v PEG-300, carbonate buffer pH 10 (39 mM Na), 5 mg/mL, Initial): cloudy
- Observations (physical appearance) ([1]; […] v/v PEG-300, carbonate buffer pH 10 (39 mM Na), 5 mg/mL, Overnight): clear, yellow
- achievable drug concentration in solution ([1]; carbonate buffer pH about 10, high ionic strength, […] v/v tween 80 and 5% v/v DMSO): at least 5 mg/mL
- time to clear solution ([1]; high ionic strength carbonate buffer at pH 9.5, 5 mg/mL): ≤ 3 h
- physical appearance in lower pH carbonate buffers ([1]; pH 9.3 and pH 9.5, 5% v/v DMSO + […] v/v tween 80, 5 mg/mL): remain cloudy even after stirring overnight
- antitumor activity in SK-OV-3 xenografts (FIG. 25) [2]: maintains the tumor growth inhibition for several weeks; also recorded: statistically significant inhibitory impact on the growth of SK-OV-3 xenografts
- solubility thermodynamic [3]: ~44 mg/mL (≈ 50 mM)
